Test system: Plasmodium falciparum
Test: GSK_TCMDC: Inhibition of Plasmodium falciparum 3D7 in whole erythrocytes, using parasite LDH activity as an index of growth.
Format: functional, organism-based
Conditions: Plasmodium falciparum, 3D7

SMILES	XC50 [nM]
Cc1oc(-c2ccccc2)nc1CCOc1ccc(C[C@H](Nc2ccccc2C(=O)c2ccccc2)C(=O)NCc2ccccn2)cc1	884
O=[N+]([O-])c1ccc2c(c1)c1ccccc1n2Cc1ccccc1O	1110
CC(C)N1CCC(Oc2ccc(CN3CCN(C(c4ccccc4)c4ccc(Cl)cc4)CC3)cc2)CC1 (configuration not stated)	937
CCN(CC)CCCC(C)N=c1cc(C=Cc2ccc([N+](=O)[O-])cc2)[nH]c2ccc(OC)cc12 (configuration not stated)	574
O=C1C(C2CCC(c3ccc(Cl)cc3)CC2)=C2OCC3COC2(O3)c2ccccc21 (configuration not stated)	39
COC(=O)c1ccc(NC(=O)Nc2cccc(CCNCc3ccccc3)c2)cc1	867
COc1ccc(C2C(C(=O)Nc3ccc(C)c(F)c3)c3cc(OC)c(OC)cc3C(=O)N2C)cc1 (configuration not stated)	956
O=C(NCCCCNCC(Cc1cccc(O)c1)c1ccccc1)c1ccc(NC(=O)c2ccc(Cl)cc2)cc1 (configuration not stated)	1040
CCC1N=C(N)N=C(N)N1OCc1cccc2ccccc12 (configuration not stated)	3.2
Cc1ccc2sc(N3CCN(C(=O)c4ccc([N+](=O)[O-])o4)CC3)nc2c1C	945
COc1cccc(CNC(=O)c2cnc(N3CCN(c4ccncc4)CC3)c(Cl)c2)c1	1150
O=C(/C=C/c1ccc(Cl)c(Cl)c1)NCCCCCN1CCC(NC(=S)Nc2cccc(Cl)c2)CC1	873
O=C(c1ccc([N+](=O)[O-])o1)N1CCC(Cc2ccc(C(F)(F)F)cc2)CC1	166
CCCCCOc1ccc(CC(C)NCC(O)c2cccc(Cl)c2)cc1 (configuration not stated)	653
N#Cc1ccccc1S(=O)(=O)N1CCCC(CNC(=O)[C@H](CC2CCCCC2)NC(=O)c2cc3ccccc3s2)C1 (some centres not stated)	515
O=C(/C=C/c1ccc(Cl)c(Cl)c1)NCCCCN1CCCN(C(=O)Nc2ccc(F)c(Cl)c2)CC1	1510
Nc1nc(N)c2c(ccc3c2ccn3CCCC(F)(F)F)n1	98
COc1cccc(CC(=O)N2CCC(n3c(C)nc4ccc(C)cc43)CC2)c1	114
Cc1ccc(S(=O)(=O)n2cc(-c3ccnc(N)c3)c3cc(Br)cnc32)cc1	896
COc1cc(NC(=O)c2nn(CCCN3CCC(N4CCCC4)CC3)cc2-c2ccc(Cl)c(Cl)c2)cc(OC)c1OC	555
O=C(Cc1cccc(O)c1)Nc1ccc(-c2cccc(-c3nc4cc(C(F)(F)F)ccc4[nH]3)c2)cc1	983
COc1cc(/C=C/C(=O)NC2CCC(N3CCC(c4ccccc4C)CC3)CC2)cc(OC)c1 (configuration not stated)	979
CCOc1ccc(-c2nc(NC(=O)COc3ccc(OC)cc3)sc2C)cc1	541
COCCCNC(=O)c1ccc(O)c(-c2cc(Cl)cc(Cl)c2)c1	923
CCCCCCCn1c(=O)c(C(=O)Nc2c(C)cccc2C)c(O)c2ccccc21	910

SMILES	XC50 [nM]
Cc1cc2nc(-c3cc(Br)ccc3O)c(-c3cc(Br)ccc3O)nc2cc1C	853
Cc1nnsc1C(=O)Nc1cccc(-c2cccc(-c3nc4cccc(C)c4[nH]3)c2)c1	267
O=C(Nc1ccccc1)N(Cc1cccc(-c2ccc(CNC3CCCC3)cc2)c1)C1CCN(Cc2ccccc2)CC1	394
COc1cc(NC(=O)/C=C/c2cc(F)cc(F)c2F)cc(OCCN2CCC(O)(c3ccccc3)CC2)c1	166
O=C(C=Cc1ccc(Cl)c(Cl)c1)NCCCCCN1CCCC(CCCNC(=O)c2ccc3c(c2)OCO3)C1 (configuration not stated)	1220
O=C(/C=C/c1ccc(Cl)c(Cl)c1)NCCCCCCN1CCCN(C(=O)Nc2ccc(F)c(Cl)c2)CC1	738
CCN(CC)S(=O)(=O)n1ncc2c3c(N)nc(N)nc3ccc21	54.9
NCc1ccc(CNCc2cccc(-c3ccc(-c4nc5cc(C(F)(F)F)ccc5[nH]4)cc3)c2)cc1	261
O=c1ccc2ccc(O)c(O)c2o1 [DAPHNETIN]	32.2
Cc1nc(-c2nc(NCc3ccncc3)ncc2-c2ccsc2)sc1C	989
COc1ccc2nccc([C@@H](O)CN3CCC(NCc4ccc5nnsc5c4)CC3)c2c1	714
CCCn1cc2c(ccc3nc(N)nc(N)c32)n1	81.4
O=C(CN1CCN(C(=O)c2ccco2)CC1)Nc1ccccc1Br	558
COc1cccc(O)c1CN1CCC2(CCCN(Cc3ccc(F)cc3)C2)C1 (configuration not stated)	865
c1ccc(CN2CCN(c3cc(-c4cncc(-c5ccccc5)c4)nc(-c4ccccc4)n3)CC2)cc1	1040
Cc1cc(N[C@@H](Cc2ccccc2)C(=O)NCc2cccc(F)c2)nc(NCCc2cccnc2)n1	1340
O=C(NCc1ccc(Cl)c(Cl)c1)c1ccc(-c2nc3ccc(Cl)cc3[nH]2)cc1	905
CCc1nc(N)nc(N)c1-c1ccc(C(C)(C)C)cc1	235
O=C(/C=C/c1ccc(Cl)c(Cl)c1)NCCCCCN1CCC(NC(=O)Nc2ccc(Cl)c(Cl)c2)CC1	892
CN(C)c1nc(NN=Cc2cc(Cl)ccc2O)nc(Nc2ccc(F)cc2)n1	837
COc1cc(Br)c(S(=O)(=O)n2cc(CN3CCC(N)CC3)c3cc(Cl)ccc32)cc1OC	985
O=C(CNC(=O)c1ccc(O)cc1)Nc1cccc(-c2cccc(-c3nc4cc(C(F)(F)F)ccc4[nH]3)c2)c1	1040
Cc1cc(N[C@@H](CC(C)C)C(=O)NCCCOC(C)C)nc(NCCc2ccc(F)cc2)n1	1250
CCNc1cc(C(=O)N[C@@H](Cc2ccccc2)[C@H](O)CNC(C)(C)CCCC(C)C)cc(N2CCCC2=O)c1	827
O=C(CC1CCCC1)N(CC1CCN(Cc2ccc(C(F)(F)F)cc2)CC1)c1ccc(N2CCOCC2)c(F)c1	432

SMILES	XC50 [nM]
NCC1CCCN1Cc1ccc(-c2cccc(-c3nc4cc(F)ccc4[nH]3)c2)cc1 (configuration not stated)	751
COc1ccc(CNCc2ccc(-c3ccc(-c4nc5cc(C(F)(F)F)ccc5[nH]4)cc3)cc2)cc1	135
CCCCN(Cc1cnccc1-c1ccc(Br)cc1)c1ccc(C(O)(C(F)(F)F)C(F)(F)F)cc1	1060
COc1ccc(NC(=O)[C@H](CC(C)C)Nc2ccnc(Nc3ccccc3)n2)cc1	1570
CC(C)(C)C1=CC(=NNC(=O)c2ccncc2)C=C(C(C)(C)C)C1=O	704
O=C(Nc1ccc(CCNCCCc2ccccc2)cc1)Nc1ccc(Cl)c(Cl)c1	273
CC(C)(CN)c1nc(-c2ccc(Cl)c(O)c2)c(-c2ccnc(N)n2)[nH]1	981
O=C1CCCN1CCCNCc1ccc(-c2cccc(-c3nc4cc(F)ccc4[nH]3)c2)cc1	659
Cc1cc(NC(=O)c2cccs2)ccc1OC1CCN(Cc2ccc(C#N)cc2)C1 (configuration not stated)	847
CC(C)N1CCC(NC(=O)N2CCCN(c3ncnc4cc(-c5ccc(Cl)cc5)sc34)CC2)CC1	1940
FC(F)(F)c1ccc2[nH]c(-c3ccc(-c4cccc(CNCC5CCCO5)c4)s3)nc2c1 (configuration not stated)	367
FC(F)(F)c1ccc2[nH]c(-c3ccc(-c4cccc(CNCc5ccccc5)c4)cc3)nc2c1	222
O=C(NC1CCC1)C1CCN(C(c2ccc(Cl)cc2)c2ccc(Cl)cc2)CC1	562
CN(C)c1ccc(CN2CCC(CNC(=O)c3cc(-c4ccccc4F)cs3)C2)cc1 (configuration not stated)	911
CC(=O)N(C)C1CCN(Cc2cccc(-c3ccc(-c4nc5cc(C(F)(F)F)ccc5[nH]4)cc3)c2)C1 (configuration not stated)	563
O=C(O)c1ccc(-c2c[nH]c3ncc(-c4ccc(Cl)cc4)cc23)cc1	726
Cc1cccc2nc(-c3ccc(-c4ccc(NC(=O)NC5CC5c5ccccc5)cc4)cc3)[nH]c12 (configuration not stated)	876
Cc1cn(CC(=O)Nc2cccc(-c3cccc(-c4nc5cc(C(F)(F)F)ccc5[nH]4)c3)c2)c(=O)[nH]c1=O	681
Cc1ccc(NC(=O)c2ccc(CN3CCCN(CCC(C)C)CC3)cc2)cc1C	913
O=C(NC1CCN(CC2(c3ccc(Cl)cc3)CCC2)CC1)c1cc[nH]n1	421
CN1CCN(c2ccnc3ccc(NC(=O)N(C)c4ccc(Cl)c(Cl)c4)cc23)CC1	741
Cn1cccc1C(=O)C(=O)Nc1cccc(-c2ccc(-c3nc4cc(C(F)(F)F)ccc4[nH]3)cc2)c1	785
CC(Nc1nc(Nc2ccc(F)cc2)nc(SCC(N)=O)n1)c1ccccc1 (configuration not stated)	496
c1cc(CN2CCCCC2)cc(OCCCNc2ccnc3ccccc23)c1	433
CN(C)CCOC(=O)C1(O)CCC2CC1C2(C)C (configuration not stated)	984

SMILES	XC50 [nM]
O=C(Nc1ccc(OC2CCN(Cc3ccsc3)CC2)c(Cl)c1)c1cccs1	600
CCn1c(C2CCN(CCC3CCN(C(=O)/C=C/c4ccc(Cl)c(Cl)c4)CC3)CC2)nc2ccccc21	1080
Cc1cc(NC2CCCC2)nc(Nc2ccccc2F)n1	926
O=C(/C=C/c1ccc(Cl)cc1)NCCCCCN1CCCN(C(=O)Nc2ccc(Cl)c(C(F)(F)F)c2)CC1	910
CC(CCON1C(N)=NC(N)=NC1(C)C)c1ccc(Cl)cc1 (configuration not stated)	3.2
CC(C)(C)OC(=O)NCCc1cccc(-c2c[nH]c3ncc(-c4cccc(NS(C)(=O)=O)c4)cc23)c1	684
c1ccc2c(NCCCCCCNc3c4ccccc4nc4ccccc34)c3ccccc3nc2c1	753
COc1ccc(N2C(=O)C3C(C2=O)C2(C)c4ccccc4C3(C)c3ccccc32)c([N+](=O)[O-])c1 (configuration not stated)	720
Cc1cccc2nc(-c3cccc(-c4cccc(NC(=O)C5CC(=O)Nc6ccccc65)c4)c3)[nH]c12 (configuration not stated)	64.6
Cc1cc(OCC2CCCN(c3ncc(C(=O)NC4CC4)cc3Cl)C2)ccc1F (configuration not stated)	1490
CC(C)Cn1ccc2c3c(N)nc(N)nc3ccc21	34.2
O=C(NCCCCN1CCC(c2ccc3c(c2OC(=O)c2ccc(NC(=O)c4ccc(Cl)cc4)cc2)CCCC3)CC1)c1ccc(NC(=O)c2ccc(Cl)cc2)cc1	203
Cc1ccc(O)cc1Nc1ccnc2cc(-c3cccc(CNCCS(C)(=O)=O)c3)ccc12	836
NCC1(c2nc(-c3ccc(Cl)c(O)c3)c(-c3ccncc3)[nH]2)CCCCC1	744
Cc1cc(N[C@@H](Cc2ccccc2)C(=O)Nc2ccccc2)nc(NCCc2ccccc2)n1	871
O=C(Nc1ccc(Cn2nc(Cl)c(N3CCCNCC3)cc2=O)cc1)c1ccc(-c2ccccc2)cc1	713
CN=C(NC)c1cccc(NC(=O)C=Cc2ccc(C=CC(=O)Nc3cccc(C(=NC)NC)c3)cc2)c1	164
COc1ccccc1CNC(=O)c1nn(-c2ccc(Cl)cc2)c(=O)c2ccccc12	294
OC(CNCCCc1ccccc1)c1cc(OCc2ccccc2)cc(OCc2ccccc2)c1 (configuration not stated)	851
Nc1nc(N)c2c(ccc3c2ccn3Cc2ccccn2)n1	8.31
CN1CCN(c2ccnc3ccc(NC(=O)Cc4cccc(Cl)c4Cl)cc23)CC1	791
CN1CCN(c2ccnc3ccc(NC(=O)Cc4ccc(-c5ccncc5)c5ccccc45)cc23)CC1	203

From ChEMBL document CHEMBL1157539, “Thousands of chemical starting points for antimalarial lead identification” (Nature, 2010)
